Measurements: ChEMBL document CHEMBL1201862, “PubChem BioAssay data set” (2004)
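Each compound was tested at five concentrations against cells in 96-well plates for 48 hours. At the GI50, growth is halved.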 Activity calls are given as the source filed them. Rule as the data show it: active = GI50 up to about 1.1 µM and inactive = higher.

Key:
Experiment in all cases: DTP human tumour cell line panel, 48 h
[1] = test system: RXF 393
[2] = test system: KM12
[3] = test system: NCI-H522
[4] = test system: HT-29
[5] = test system: SNB-75
[6] = test system: NCI-H226
[7] = test system: UACC-257
[8] = test system: DU-145
[9] = test system: MDA-N
[10] = test system: HCC 2998
[11] = test system: UACC-62
[12] = test system: OVCAR-8
[13] = test system: TK-10
[14] = test system: SK-MEL-5
[15] = test system: PC-3
[16] = test system: SK-MEL-2
[17] = test system: Hs-578T
[18] = test system: MOLT-4
[19] = test system: NCI-H460
[20] = test system: 786-0

Row | Structure (SMILES) | GI50 [1] | GI50 [2] | GI50 [3] | GI50 [4] | GI50 [5] | GI50 [6] | GI50 [7] | GI50 [8] | GI50 [9] | GI50 [10] | GI50 [11] | GI50 [12] | GI50 [13] | GI50 [14] | GI50 [15] | GI50 [16] | GI50 [17] | GI50 [18] | GI50 [19] | GI50 [20]
1 | COc1cc(OC)c2c(=O)c3cccc(C)c3n(C)c2c1 | > 100 µM (inactive) | 80 µM (inactive) | > 100 µM (inactive) | 27.9 µM (inactive) | 61.5 µM (inactive) | > 100 µM (inactive) | 43.5 µM (inactive) | 57.3 µM (inactive) | 16.6 µM (inactive) | > 100 µM (inactive) | 61.4 µM (inactive) | 64.7 µM (inactive) | > 100 µM (inactive) | 22.4 µM (inactive) | 50.9 µM (inactive) | 76.7 µM (inactive) | 58.7 µM (inactive) | 52.4 µM (inactive) | 94 µM (inactive) | > 100 µM (inactive)
2 | CCCCCCCCC/C=C/C=C/C(=O)NCC(=O)NC1C(O)C(O)C(Nc2ncnc3[nH]cnc23)OC1C(O)CO (stereo not given) | 0.00401 µM (active) | 0.00263 µM (active) | 0.00532 µM (active) | 0.0011 µM (active) | 0.00125 µM (active) | 0.00133 µM (active) | 0.00444 µM (active) | 0.00388 µM (active) | 0.0306 µM (active) | 0.000509 µM (active) | 0.00507 µM (active) | 0.00413 µM (active) | 0.00208 µM (active) | 0.0137 µM (active) | 0.00023 µM (active) | 0.0056 µM (active) | 0.00432 µM (active) | 0.158 µM (active) | 0.00189 µM (active) | 0.00217 µM (active)
3 | CCCCCCCCOc1ccc(/C=C/C2=[N+](CCO)CCO2)cc1 | 1.8 µM (inactive) | 3.27 µM (inactive) | 2.02 µM (inactive) | 2.4 µM (inactive) | 2.67 µM (inactive) | 3.01 µM (inactive) | 3.38 µM (inactive) | 5 µM (inactive) | 3.56 µM (inactive) | 3.47 µM (inactive) | 4.28 µM (inactive) | 3.14 µM (inactive) | 3.36 µM (inactive) | 2.56 µM (inactive) | 2.94 µM (inactive) | 2.3 µM (inactive) | 3.53 µM (inactive) | 3.65 µM (inactive) | 3.07 µM (inactive) | 3.72 µM (inactive)
4 | CC1C(=O)OC2CC[N+]3([O-])CC=C(COC(=O)C(C)(O)C1(C)O)C23 (stereo not given) | > 100 µM (inactive) | > 100 µM (inactive) | > 100 µM (inactive) | > 100 µM (inactive) | > 100 µM (inactive) | > 100 µM (inactive) | > 100 µM (inactive) | > 100 µM (inactive) | > 100 µM (inactive) | > 100 µM (inactive) | > 100 µM (inactive) | > 100 µM (inactive) | > 100 µM (inactive) | > 100 µM (inactive) | > 100 µM (inactive) | > 100 µM (inactive) | > 100 µM (inactive) | > 100 µM (inactive) | > 100 µM (inactive) | > 100 µM (inactive)
5 | N#CC1(C2SCC[S+]2[O-])C2=C(C(=O)c3ccccc3C2=O)N2CCCC21 (stereo not given) | 0.998 µM (active) | 3.02 µM (inactive) | 2.11 µM (inactive) | 3.59 µM (inactive) | 3.23 µM (inactive) | 3.66 µM (inactive) | 1.36 µM (inactive) | 2.18 µM (inactive) | 0.605 µM (active) | 4.85 µM (inactive) | 2.85 µM (inactive) | 2.18 µM (inactive) | 8.77 µM (inactive) | 0.364 µM (active) | 1.88 µM (inactive) | 1.69 µM (inactive) | 3.46 µM (inactive) | 3.06 µM (inactive) | 2.32 µM (inactive) | 4.21 µM (inactive)
6 | CN(C)CCn1c(=O)c2ccc(NCCCN(C)CCCNc3ccc4c(=O)n(CCN(C)C)c(=O)n5c6ccc([N+](=O)[O-])cc6c(=O)c3c45)c3c(=O)c4cc([N+](=O)[O-])ccc4n(c1=O)c23 | 0.0122 µM (active) | < 0.01 µM (active) | < 0.01 µM (active) | < 0.01 µM (active) | < 0.01 µM (active) | < 0.01 µM (active) | 0.069 µM (active) | < 0.01 µM (active) | 0.0248 µM (active) | < 0.01 µM (active) | < 0.0246 µM (active) | < 0.01 µM (active) | < 0.0143 µM (active) | < 0.0115 µM (active) | < 0.01 µM (active) | 0.0346 µM (active) | 0.0178 µM (active) | < 0.01 µM (active) | < 0.01 µM (active) | < 0.01 µM (active)
